The numbers were not newly measured in patent US20250387497A1, “MULTIVALENT MULTISPECIFIC CONJUGATES AND RELATED COMPOSITIONS AND METHODS OF USE” (Purdue Research Foundation, priority 2022, published 2025), which cites them from elsewhere.

pKd: −log10 of the molar value.

One data set has as its target Her2 (Homo sapiens, UniProt P04626). As to conditions: read-out: binding affinity for Her2.
A further data set addresses EGFR (Homo sapiens, UniProt P00533). As to conditions: read-out: binding affinity for EGFR.

For FCGDGFYACYMDV [H], on Her2, the pKd was 6.52. For the sequence YHWYGYTPQNVI [E], the pKd on EGFR is 3.34.
